Experimental data published in patent US6953789B2, “Thiol compounds, their production and use” (Takeda Chemical Industries, Ltd., priority 1998, dated 2005).

biological target: T1, recombinant human MMP-13 (Homo sapiens, UniProt P45452); experiment: Assay of MMP-13 inhibiting activity (fluorogenic peptide substrate); type: biochemical; details: Table 1; 37° C., 2 hours
T1 construct: made in house; host or cells: baculovirus (pBlueBac4 / Bac-N-Blue; virus made in Sf9), expressed in High-Five insect cells; culture supernatant used
How it was run: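 Baculovirus-expressed human MMP-13 (High-Five cell supernatant) in pH 7.5 Tris buffer with 200 mM NaCl, 20 mM CaCl2, 0.1% Brij 35, 1 mM 2-mercaptoethanol; reaction started with 40 μM (stock) MOCAc-PLGL-A2pr(DNP)-AR-NH2, 2 h at 37 °C, stopped at pH 3.0. Fluorescence 330/405 nm; IC50 versus no-compound control.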

Molecule | IC50
3-Mercapto-1-(4-phenoxybenzylpyrrolidine-2,5-dione [Example 1] | 5 nM

same assay, conditions: Table 2; 37° C., 2 hours

IC50 | Molecule
1000 nM | COC(=O)CCSC1C(=O)N(Cc2ccc(Oc3ccccc3)cc2)C(=O)C1O (stereo not shown) [Example 9, 3-Hydroxy-4-[2-(methoxycarbonyl)ethylthio]-1-(4-phenoxybenzyl)pyrrolidine-2,5-dione]
20 nM | CC1C(=O)N(Cc2ccc(Oc3ccccc3)cc2)C(=O)C1S (stereo not shown) [Example 8, 3-Mercapto-4-methyl-1-(4-phenoxybenzyl)pyrrolidine-2,5-dione]

same assay, conditions: Table 3; 37° C., 2 hours

Molecule | IC50
CCCCC(=O)SC1CC(=O)N(Cc2ccc(Oc3ccccc3)cc2)C1 (stereo not drawn) [Example 66, S-[5-oxo-1-(4-phenoxybenzyl)-3-pyrrolidinyl]pentanethioate] | 1 nM
O=C1C[C@@H](SSc2ccccc2[N+](=O)[O-])CN1Cc1ccc(Oc2ccccc2)cc1 [Example 87, (4R)-4-[(2-Nitrophenyl)disulfanyl)-1-(4-phenoxybenzyl)-2-pyrrolidinone] | 600 nM
O=C1OC(S[C@@H]2CC(=O)N(Cc3ccc(Oc4ccccc4)cc3)C2)c2ccccc21 (stereo partly drawn) [Example 99, (4R)-4-[(3-Oxo-1,3-dihydro-2-benzofuran-1-yl)sulfanyl]-1-(4-phenoxybenzyl)-2-pyrrolidinone] | 7 nM
CCCNC(=O)SC1CC(=O)N(Cc2ccc(Oc3ccccc3)cc2)C1 (stereo not drawn) [Example 52, S-[5-oxo-1-(4-phenoxybenzyl)-3-pyrrolidinyl]propylcarbamothioate] | 2 nM
O=C(Cc1ccc(Cl)cc1)SC1CC(=O)N(Cc2ccc(Oc3ccccc3)cc2)C1 (stereo not drawn) [Example 69, S-[5-oxo-1-(4-phenoxybenzyl)-3-pyrrolidinyl]-(4-chlorophenyl)ethanethioate] | 20 nM

The remaining lines, values ahead:

IC50 | Molecule
400 nM | COC(=O)c1ccc(CS[C@@H]2CC(=O)N(Cc3ccc(Oc4ccccc4)cc3)C2)cc1 [Example 95, Methyl 4-({[(3R)-5-oxo-1-(4-phenoxybenzyl)pyrrolidinyl]sulfanyl}methyl)benzoate]
300 nM | CCOC(=O)NCS[C@@H]1CC(=O)N(Cc2ccc(Oc3ccccc3)cc2)C1 [Example 103, Ethyl {[(3R)-5-oxo-1-(4-phenoxybenzyl)pyrrolidinyl]sulfanyl}methylcarbamate]
300 nM | O=C1CC(SCc2ccc(Br)cc2)CN1Cc1ccc(Oc2ccccc2)cc1 (stereo not shown) [Example 94, 4-[(4-Bromobenzyl)sulfanyl)-1-(4-phenoxybenzyl)-2-pyrrolidinone]
0.65 nM | NC(=O)S[C@@H]1CC(=O)N(Cc2ccc(Oc3ccccc3)cc2)C1 [Example 49, S-[(3R)-5-oxo-1-(4-phenoxybenzyl)pyrrolidinyl]thiocarbamate]
8 nM | O=C(O)CCC(=O)S[C@@H]1CC(=O)N(Cc2ccc(Oc3ccccc3)cc2)C1 [Example 75, 4-Oxo-4-{[(3R)-5-oxo-1-(4-phenoxybenzyl)pyrrolidinyl]sulfanyl}butanoic acid]
3000 nM | CC(C)(C)C(=O)NCS[C@@H]1CC(=O)N(Cc2ccc(Oc3ccccc3)cc2)C1 [Example 101, 2,2-Dimethyl-N-({[(3R)-5-oxo-1-(4-phenoxybenzyl)pyrrolidinyl]sulfanyl}methyl)propanamide]
1.3 nM | CCCC(=O)S[C@@H]1CC(=O)N(Cc2ccc(Oc3ccccc3)cc2)C1 [Example 65, S-[(3R)-5-oxo-1-(4-phenoxybenzyl)pyrrolidinyl]butanethioate]
400 nM | O=C(O)CSS[C@@H]1CC(=O)N(Cc2ccc(Oc3ccccc3)cc2)C1 [Example 83]
11 nM | CC(C)C(=O)S[C@@H]1CC(=O)N(Cc2ccc(Oc3ccccc3)cc2)C1 [Example 67, S-[(3R)-5-oxo-1-(4-phenoxybenzyl)pyrrolidinyl]2-methylpropanethioate]
30 nM | CCOC(=O)S[C@@H]1CC(=O)N(Cc2ccc(Oc3ccccc3)cc2)C1 [Example 107, O-Ethyl S-[(3R)-5-oxo-1-(4-phenoxybenzyl)pyrrolidinyl]carbanothioate]
5.4 nM | CCOC(=O)CCC(=O)S[C@@H]1CC(=O)N(Cc2ccc(Oc3ccccc3)cc2)C1 [Example 74, Ethyl 4-oxo-4-{[(3R)-5-oxo-1-(4-phenoxybenzyl)pyrrolidinyl]sulfanyl}butanoate]
200 nM | O=C1C[C@@H](SCN2C(=O)c3ccccc3C2=O)CN1Cc1ccc(Oc2ccccc2)cc1 [Example 104, 2-({[(3R)-5-oxo-1-(4-phenoxybenzyl)pyrrolidinyl]sulfanyl}methyl)-1H-isoindole-1,3-(2H)-dione]
1.4 nM | O=C(NC(=O)c1ccccc1)S[C@@H]1CC(=O)N(Cc2ccc(Oc3ccccc3)cc2)C1 [Example 56, S-[(3R)-5-oxo-1-(4-phenoxybenzyl)pyrrolidinyl]benzoylthiocarbamate]
40 nM | O=C1CC(S[C@@H]2CC(=O)N(Cc3ccc(Oc4ccccc4)cc3)C2)C(=O)N1 (stereo partly drawn) [Example 105, 3-{[(3R)-5-Oxo-1-(4-phenoxybenzyl)pyrrolidinyl]sulfanyl}-2,5-pyrrolidinedione]
0.89 nM | CCOC(=O)CC(=O)S[C@@H]1CC(=O)N(Cc2ccc(Oc3ccccc3)cc2)C1 [Example 71, Ethyl 3-oxo-3-{[(3R)-5-oxo-1-(4-phenoxybenzyl)pyrrolidinyl]sulfanyl}propanoate]

same assay, conditions: Table 4; 37° C., 2 hours

IC50 | Molecule
200 nM | O=C1CC(S)CN1Cc1cccc(Oc2ccccc2)c1 (stereo not shown) [Example 41, 4-Mercapto-1-(3-phenoxybenzyl)pyrrolidin-2-one]

same assay, conditions: Table 5; 37° C., 2 hours

IC50 | Molecule
19 nM | O=C(NCc1ccncc1)[C@H]1[C@H](S)CC(=O)N1Cc1ccc(Oc2ccccc2)cc1 (relative stereo) [Example 192, trans-4-Mercapto-5-(4-pyridylmethyl)aminocarbonyl-1-(4-phenoxybenzyl)pyrrolidin-2-one]

same assay, conditions: Table 6; 37° C., 2 hours

IC50 | Molecule
6 nM | CC1C(=O)N(Cc2ccc(Oc3ccccc3)cc2)CC1S (stereo not drawn) [Example 195, trans-4-Mercapto-3-methyl-1-(4-phenoxybenzyl)pyrrolidin-2-one]

same assay, conditions: Table 8; 37° C., 2 hours

IC50 | Molecule
2000 nM | O=C1C(S)CCN1Cc1ccc(Oc2ccccc2)cc1 (stereo not shown) [Example 29, 3-Mercapto-1-(4-phenoxybenzyl)pyrrolidin-2-one]

same assay, conditions: Table 9; 37° C., 2 hours

Molecule | IC50
CS(=O)(=O)Nc1ccc(Oc2ccc(CN3CC(S)CC3=O)cc2)cc1 (stereo not shown) [Example 147, 4-Mercapto-1-[4-(4′-methylsulfonylaminophenoxy)benzyl]pyrrolidin-2-one] | 1.2 nM
CCOc1ccc(Oc2ccc(CN3CC(S)CC3=O)cc2)cc1 (stereo not shown) [Example 139, 4-Mercapto-1-[4-(4′-ethoxyphenoxy)benzyl]pyrrolidin-2-one] | 6 nM
CC(=O)S[C@H]1CC(=O)N(Cc2ccc(Oc3ccc(F)cc3)cc2)C1 [Example 116, (S)-4-Acethylthio-1-[4-(4′-fluorophenoxy)benzyl)pyrrolidin-2-one] | 7000 nM
O=C1CC(S)CN1Cc1ccc(Oc2ccc(OC(F)(F)F)cc2)cc1 (stereo not shown) [Example 141, 4-Mercapto-1-{4-[4′-(trifluoromethoxy)phenoxy]benzyl}pyrrolidin-2-one] | 10 nM
CC(=O)SC1CC(=O)N(Cc2ccc(Oc3ccc(Cl)cc3)cc2)C1 (stereo not shown) [Example 32, 4-Acetylthio-1-(4-(4′-chlorophenoxy)benzyl)pyrrolidin-2-one] | 8 nM
O=C1CC(S)CN1Cc1ccc(Oc2ccc(C(F)(F)F)cc2)cc1 (stereo not shown) [Example 130, 4-Mercapto-1-{4-[4′-(trifluoromethyl)phenoxy]benzyl}pyrrolidin-2-one] | 10 nM
CC(=O)Nc1ccc(Oc2ccc(CN3CC(SC(C)=O)CC3=O)cc2)cc1 (stereo not shown) [Example 144, 4-Acetylthio-1-[4-(4′-acetoaminophenoxy)benzyl]pyrrolidin-2-one] | 2.7 nM
4-Acetylthio-1-[4-(2′-fluorophenoxy)benzyl]pyrrolidin-2-one [Example 112] | 20 nM

Next, values leading:

IC50 | Molecule
20 nM | CCOC(=O)c1ccc(Oc2ccc(CN3CC(SC(C)=O)CC3=O)cc2)cc1 (stereo not shown) [Example 131, 4-Acetylthio-1-[4-(4′ethoxycarbonylphenoxy)benzyl]pyrrolidin-2-one]
10 nM | CC(=O)S[C@@H]1CC(=O)N(Cc2ccc(Oc3ccc(C)cc3)cc2)C1 [Example 127, (R)-4-Acetylthio-1-[4-(4′-methylphenoxy)benzyl]pyrrolidin-2-one]

same assay, conditions: Table 10; 37° C., 2 hours

IC50 | Molecule
1000 nM | CC(=O)SC1CC(=O)N(Cc2ccc(OCc3ccccc3)cc2)C1 (stereo not shown) [Example 165, 4-Acetylthio-1-(4-benzyloxybenzyl)pyrrolidin-2-one]
100 nM | O=C1CC(S)CN1Cc1ccc(OCc2ccccc2)cc1 (stereo not shown) [Example 166, 4-Mercapto-1-(4-benzyloxybenzyl)pyrrolidin-2-one]
> 10000 nM | O=C1CC(S)CN1Cc1ccc([S+]([O-])c2ccccc2)cc1 (stereo not shown) [Example 172, 4-Mercapto-1-(4-phenylsulfinylbenzyl)pyrrolidin-2-one]
500 nM | CC(=O)SC1CC(=O)N(Cc2ccc(Cc3ccccc3)cc2)C1 (stereo not shown) [Example 159, 4-Acetylthio-1-(4-benzylbenzyl)pyrrolidin-2-one]

Molecule | IC50
CC(=O)SC1CC(=O)N(C(=O)c2ccc(Oc3ccccc3)cc2)C1 (stereo not drawn) [Example 196, S-[5-Oxo-1-(4-phenoxybenzoyl)-3-pyrrolidinyl]ethanethioate] | > 10000 nM

same assay, conditions: Table 11; 37° C., 2 hours

IC50 | Molecule
300 nM | CC(=O)SC1CC(=O)N(Cc2ccc3oc4ccccc4c3c2)C1 (stereo not shown) [Example 201, 4-Acetylthio-1-(2-dibenzofuranmethyl)pyrrolidin-2-one]
100 nM | O=C1CC(S)CN1Cc1ccc2oc3ccccc3c2c1 (stereo not shown) [Example 202, 4-Mercapto-1-(2-dibenzofuranmethyl)pyrrolidin-2-one]

same assay, conditions: Table 12; 37° C., 2 hours

IC50 | Molecule
17 nM | O=C1CC(S)CCN1Cc1ccc(Oc2ccccc2)cc1 (stereo not shown) [Example 111, 1-(4-Phenoxybenzyl)-4-sulfanyl-2-piperidinone]

same assay, conditions: Table 13; 37° C., 2 hours

IC50 | Molecule
70 nM | CC(=O)SC1CCC(=O)N(Cc2ccc(Oc3ccccc3)cc2)C1=O (stereo not shown) [Example 42, 3-Acetylthio-1-(4-phenoxybenzyl)piperidine-2,6-dione]
